Selectivity index, CC50 and EC50 data for ten molecules are collected here from ChEMBL document CHEMBL1142841, “Synthesis and evaluation of anti-HIV activity of isatin beta-thiosemicarbazone derivatives” (Bioorg Med Chem Lett, 2005).

Experiment [1] concerns Human immunodeficiency virus. Briefly: Ratio of CC50 required to reduce the viability of mock-infected human CEM cells to EC50 required to inhibit HTLV-III B induced cytopathicity in that cells. Format: functional, Human immunodeficiency virus 1, CCRF-CEM.
The subject of a further experiment is CCRF-CEM. Briefly: Concentration required to reduce the viability of mock-infected human CEM cells. The format is functional.
The subject of experiment [2] is Human immunodeficiency virus. Description: Effective concentration required to inhibit HTLV-III B induced cytopathicity in human CEM cells. The format is functional, organism-based. As to conditions: Human immunodeficiency virus 1, CCRF-CEM. (Cytopathic effects are the visible damage that an infection or toxin causes in cultured cells.)

Regarding `CCN(CC)C(=S)N/N=C1\C(=O)N(CN2CCN(Cc3ccccc3)CC2)c2ccccc21`, the Selectivity index in experiment [1] was determined as 4.12. The molecule also came in with a cytotoxic concentration (CC50) in the experiment on CCRF-CEM of 14 µM. The EC50 in experiment [2] was 3.4 µM.

Take `CCN(CC)C(=S)N/N=C1\C(=O)N(CN2CCN(c3cccc(C(F)(F)F)c3)CC2)c2ccccc21`: in experiment [1], the Selectivity index is recorded as 17.14. The same molecule gave a CC50 in the experiment with CCRF-CEM of 44.9 µM. This molecule also yielded a concentration for a half-maximal effect (EC50) in experiment [2] of 2.62 µM.

On to `CCN(CC)C(=S)N/N=C1\C(=O)N(CN2CC(C)OC(C)C2)c2ccccc21` (stereo not given), for which, in experiment [1], the Selectivity index is recorded as less than 1. Further, in the experiment with CCRF-CEM, the midpoint of cytotoxicity, the CC50, lay at 13.3 µM. This molecule also came in with a concentration giving a half-maximal response (EC50) in experiment [2] of more than 13.3 µM.

With `CCN(CC)C(=S)N/N=C1\C(=O)N(CN(C)C)c2ccccc21`, the Selectivity index in experiment [1] is listed as less than 1. Further, the midpoint of cytotoxicity in the experiment on CCRF-CEM, the CC50, lay at 2.86 µM. The concentration giving a half-maximal response (EC50) in experiment [2] was more than 2.86 µM.

In the case of `O=C1Nc2ccc(Cl)cc2[C@@](C#CC2CC2)(C(F)(F)F)O1` [EFAVIRENZ], in experiment [1], the Selectivity index is on record as more than 256. For the same molecule, the CC50 with CCRF-CEM was more than 200 µM. This molecule gave an EC50 in experiment [2] of 0.78 µM.

Regarding `CCN(CC)C(=S)N/N=C1\C(=O)N(CN2CCN(c3ncccn3)CC2)c2ccccc21`, the Selectivity index in experiment [1] was less than 1. Moreover, the CC50 in the experiment on CCRF-CEM worked out at 12.8 µM. Besides, the EC50 in experiment [2] is more than 12.8 µM.

As for `CCN(CC)C(=S)N/N=C1\C(=O)N(CN2CCN(c3ccc([N+](=O)[O-])cc3)CC2)c2ccccc21`, in experiment [1], the Selectivity index is given as less than 1. The molecule also had a CC50 in the experiment on CCRF-CEM of 11.9 µM. In experiment [2], this molecule displayed an EC50 of more than 11.9 µM.

Turning to `CCN(CC)C(=S)N/N=C1\C(=O)N(CN2CCN(c3ccc(F)cc3)CC2)c2ccccc21`, in experiment [1], the Selectivity index is recorded as less than 1. In the experiment with CCRF-CEM, the CC50 worked out at 14.5 µM. Moreover, the half-maximal effective concentration (EC50) in experiment [2] was more than 14.5 µM.

Take `CCN(CC)C(=S)N/N=C1\C(=O)N(CN(Cc2ccccc2)Cc2ccccc2)c2ccccc21`: the Selectivity index in experiment [1] was less than 1. In the experiment on CCRF-CEM, the CC50 came to 8.29 µM. In addition, the half-maximal effective concentration (EC50) in experiment [2] is more than 8.29 µM.

On to `CCN(CC)C(=S)N/N=C1\C(=O)N(CN2CCN(c3cc4c(cc3F)c(=O)c(C(=O)O)cn4CC)CC2)c2ccccc21`, for which the Selectivity index in experiment [1] was found to be 12.02. In the experiment with CCRF-CEM, this molecule had a CC50 of 37.5 µM. The molecule also registered an EC50 in experiment [2] of 3.12 µM.

In general, CC50 refers to the concentration that lowers cell viability or growth by half. A word on the EC50: it is the concentration at which the effect is half-maximal. Higher therefore signals a need for much substance.
